Results reported in US20210177722A1, “Phytic Acid Ester Derivative” (NATIONAL UNIVERSITY CORPORATION KUMAMOTO UNIVERSITY, priority 2018, published 2021).

What was measured:
[1] = tested on: M8166 cell (human T-lymphoblastoid cell); test: MTT assay, M8166 cell; format: cell-based
Procedure: (§1) In this example, the cytotoxic effect of Pro-IP6 on four types of blood cancer cell lines and a cell derived from a healthy person was examined by MTT assay. […] It is possible to check viability of cultured cells by MTT assay. Cancer cell lines (1.74×10^4 cells/well, culture fluid: 200 μL) • MT-2 cell (HTLV transformed human T cell leukemia cell) • […] cell (human T-lymphoblastoid cell) • Jurkat cell (human T-lymphocyte cell) • K562 cell (chronic myelogenous leukemia cell) Each of the above-described types of cells was seeded in a 96-well plate, and was cultured for 8 hours for each of the various cancer cell lines and for 16 hours for PMBC. Thereafter, DMSO (1%, Fujifilm Wako Pure Chemical Corporation), an aqueous solution (1%) of IP6 (final concentration: 1 μM or 10 μM, Sigma Aldrich), or a DMSO solution (1%) of Pro-IP6 (final concentration: 1 μM or 10 μM) was added thereto, followed by culturing for 8 hours or 24 hours. An MTT reagent (Dojindo Laboratories, 1.1 mg/mL) was added in an amount of 50 μL per well, and the resultant was cultured for another 4 hours. The thus precipitated crystal was collected, a supernatant was removed, and 100 μL of DMSO was added thereto to completely dissolve. The resultant solution was measured for an absorbance (550 nm).

Akt = test: Western blotting (1), anti-phospho-Akt (Thr308) antibody, Jurkat cell; format: cell-based, human; details: 8 hours or 24 hours
Procedure: (§2) In this example, the action mechanism for killing cells by Pro-IP6 was studied by Wester blotting using a Jurkat cell and various antibodies. Jurkat cells (1×10^5 cells/well, culture fluid: 500 μL) were seeded in a 24-well plate to be cultured overnight. Thereafter, DMSO (1%, Fujifilm Wako Pure Chemical Corporation), an aqueous solution (1%) of IP6 (final concentration: 10 μM, Sigma Aldrich), or a DMSO solution (1%) of Pro-IP6 (final concentration: 1 μM or 10 μM) was added thereto, followed by culturing for 8 hours or 24 hours. A supernatant was removed, the resultant was washed with 1× PBS (−) once, Laemmli sample buffer was added thereto, and the resultant was boiled at 100° C. for 1 hour to dissolve the cells. […] Detection was performed using ImmunoStar LD (Fujifilm Wako Pure Chemical Corporation).

[2] = tested on: Jurkat cell (human T-lymphocyte cell); test: MTT assay, Jurkat cell; format: cell-based
Procedure: as §1

TRAF6 = test: Western blotting (2), anti-TRAF6 antibody, Jurkat cell; format: cell-based, human; details: 1 μM or 10 μM, 8 hours or 24 hours
Procedure: (§3) In this example, in the same manner as in Example 4, the action mechanism for killing cells by Pro-IP6 was checked by Wester blotting using a Jurkat cell and various antibodies. Jurkat cells (1×10^5 cells/well, culture fluid: 500 μL) were seeded in a 24-well plate to be cultured overnight. Thereafter, DMSO (1%, Fujifilm Wako Pure Chemical Corporation), an aqueous solution (1%) of IP6 (final concentration 10 μM, Sigma Aldrich), or a DMSO solution (1%) of Pro-IP6 (final concentration: 1 μM or 10 μM) was added thereto, followed by culturing for 8 hours or 24 hours. A supernatant was removed, the resultant was washed with 1× PBS (−) once, Laemmli sample buffer was added thereto, and the resultant was boiled at 100° C. for […] to dissolve the cells. The resultant was subjected to electrophoresis and then transferred onto a membrane (Millipore). […] Detection was performed using ImmunoStar LD (Fujfilm Wako Pure Chemical Corporation).

[3] = tested on: K562 cell (chronic myelogenous leukemia cell); test: MTT assay, K562 cell; format: cell-based; details: 1 μM or 10 μM, 8 hours or 24 hours
Procedure: as §1

Caspase-3 = test: Western blotting (1), Caspase-3 antibody, Jurkat cell; format: cell-based, human; details: 10 μM
Procedure: as §2

AMPK = test: Western blotting (2), anti-pAMPK antibody, Jurkat cell; format: cell-based, human; details: 1 μM or 10 μM, 8 hours or 24 hours
Procedure: as §3

Compound: CCCC(=O)OCOP(=O)(OCOC(=O)CCC)O[C@H]1[C@H](OP(=O)(OCOC(=O)CCC)OCOC(=O)CCC)[C@@H](OP(=O)(OCOC(=O)CCC)OCOC(=O)CCC)[C@H](OP(=O)(OCOC(=O)CCC)OCOC(=O)CCC)[C@@H](OP(=O)(OCOC(=O)CCC)OCOC(=O)CCC)[C@H]1OP(=O)(OCOC(=O)CCC)OCOC(=O)CCC [Pro-IP6, myo-inositol hexaphosphate dodecakis(butyryloxymethyl) ester]
- cytotoxic effect at 10 μM [1]: most of the cells were killed
- lowering of relative cell viability ([1]; M8166 cell, 1 μM or 10 μM, 8 hours or 24 hours): ≥ 25%
- phosphorylation of Akt (Akt; 1 μM): inhibits phosphorylation of Akt
- phosphorylation of Akt (Akt; 10 μM): inhibits phosphorylation of Akt
- cytotoxic effect at 10 μM [2]: most of the cells were killed
- lowering of relative cell viability ([2]; Jurkat cell, 1 μM or 10 μM, 8 hours or 24 hours): ≥ 25%
- expression of TRAF6 (TRAF6): inhibits expression of TRAF6
- lowering of relative cell viability [3]: ≥ 25%
- cleavage of Caspase-3 (induction of apoptosis) (Caspase-3): cleavage of PARP-1 and Caspase-3 was observed
- activation of AMPK (pAMPK) (AMPK): activates AMPK
